From patent US12661357B2, “Use of pyrido[1,2-a]pyrimidone analogue” (GUANGZHOU JOYO PHARMATECH CO., LTD, priority 2021, dated 2026)
Where two headings read alike, the source gives them in different places.

Tests used:
[1] = system: HepG2 hepatocellular cancer cells; experiment: CTG cell proliferation IC50, HepG2; assay type: cell-based; details: read-out: Absolute IC50
Description: • 2). IC50 value: the concentration of inhibitor when 50% inhibitory effect was achieved; • 3). CAL-27 and RPMI 2650: head and neck cancer cell models; HepG2: hepatocellular cancer cells. CAL-27, RPMI 2650 and HepG2 cells were purchased from ATCC, where ATCC® No. was CRL-2095™, CCL-30™, HB-8065™, respectively. • 4). Both KYSE-150 and TE-1 were esophageal cancer cell models. The KYSE-150 cell line was purchased from DSMZ (German Collection of Microorganisms and Cell Cultures), and the DSMZ No. was ACC375; the TE-1 cell line was purchased from National Collection of Authenticated Cell Cultures, catalog number: TCHu89. • 5). RPMI 1640/F12 medium was a 1:1 mixture of RPMI 1640 medium and F12 medium. • 6). The percentages in 10% FBS in Table 1 and Table 2 were volume percentages. (2) Reagents • 1). […]
• Step 1: Cells in exponential growth phase were harvested, and viable cells were counted with a Vi-Cell XR cytometer. […] After 10 minutes, the fluorescence signal value was measured with an Envision2104 plate reader. […]
(§1) Cell survival rate was calculated using the formula: Vsample/Vvehicle control×100%. Where, Vsample was the reading of the drug treatment group, and Vvehicle control was the average value of the solvent control group. GraphPad Prism 5.0 software was used, and a S-type dosage-survival rate curve was drawn using a nonlinear regression model and IC50 value was calculated.

stage IV gastric cancer = experiment: Gastric cancer clinical trial (Subject 4); assay type: in vivo, human; details: 0.7 mg then 0.4 mg once a day
Procedure: Clinical data: Subject 4. The informed consent form was made on Nov. 5, 2019. During the baseline period, examinations such as vital signs, physical examination, ECOG physical strength score, infectious disease markers, blood routine, urine routine, coagulation function, liver function, kidney function, electrolytes, fasting blood glucose, blood lipids, 12-lead electrocardiogram were performed. The tumor was diagnosed as stage IV gastric cancer. The lesions were located in the right lobe of the liver and the right lobe of the posterior liver, and the baseline diameters were 36.4 mm and 33.1 mm. Two surgical regimens, five therapeutic regimens including chemotherapy, anti-angiogenesis inhibitors combined with chemotherapy, and immunotherapy regimens were drug-resistant for subject 4 before medication administration; from Nov. 14, 2019, tablets containing compound I were single administered with a dose of 0.7 mg once a day. The dose of 0.7 mg contained one tablet of compound I with a specification of 0.5 mg and two tablets of compound I with a specification of 0.1 mg. After the subject's safety was confirmed, one week later, from Nov. 20, 2019, the tablets containing 0.7 mg of compound I were single administered, once a day, and the dose of 0.7 mg contained one tablet of compound I with a specification of 0.5 mg and two tablets of compound I with a specification of 0.1 mg. After the first cycle, the dose was reduced to 0.4 mg, single administration, once a day, until Apr. 9, 2020 and the 0.4 mg dose contained four tablets of compound I of 0.1 mg. During the period, examinations such as vital signs, physical examination, blood routine, urine routine, coagulation function, liver function, kidney function, electrolytes, fasting blood glucose, blood lipids, 12-lead electrocardiogram were performed.

[2] = system: RPMI2650 head and neck cancer cells; experiment: CTG cell proliferation IC50, RPMI 2650; assay type: cell-based; details: 72 hours, read-out: Absolute IC50
Description: • 2). IC50 value: the concentration of inhibitor when 50% inhibitory effect was achieved; • 3). CAL-27 and RPMI 2650: head and neck cancer cell models; HepG2: hepatocellular cancer cells. CAL-27, RPMI 2650 and HepG2 cells were purchased from ATCC, where ATCC® No. was CRL-2095™, CCL-30™, HB-8065™, respectively. • 4). Both KYSE-150 and TE-1 were esophageal cancer cell models. The KYSE-150 cell line was purchased from DSMZ (German Collection of Microorganisms and Cell Cultures), and the DSMZ No. was ACC375; the TE-1 cell line was purchased from National Collection of Authenticated Cell Cultures, catalog number: TCHu89. • 5). RPMI 1640/F12 medium was a 1:1 mixture of RPMI 1640 medium and F12 medium. • 6). The percentages in 10% FBS in Table 1 and Table 2 were volume percentages. (2) Reagents • 1). FBS (fetal bovine serum) (purchased from ExCell, product number: FND500); • 2). MEM medium (purchased from Hyclone, product number: SH30024.01; • 3). DMEM medium (purchased from Gibco, product number: C11995500BT); • 4). MEM NEAA (purchased from Gibco, product number: 11140-050); • 5). RPMI1640 Culture medium (purchased from Gibco, product number: 11875-119); • 6). F12 Culture medium (purchased from Gibco, product number: 11765-054); (3) Test Article and Positive Control Article
2. CTG Method was Used to Determine the Cell Proliferation IC50 of the Compound
• Step 1: Cells in exponential growth phase were harvested, and viable cells were counted with a Vi-Cell XR cytometer. The cell suspension was adjusted to an appropriate concentration with medium. […] After 10 minutes, the fluorescence signal value was measured with an Envision2104 plate reader. […]
as §1

[3] = system: stage IV nasopharyngeal carcinoma; experiment: Nasopharyngeal carcinoma clinical trial (Subject 5); assay type: in vivo, human; details: 0.4 mg once a day
Procedure: Clinical data: Subject 5. The informed consent form was made on Aug. 19, 2019. During the baseline period, examinations such as vital signs, physical examination, ECOG physical strength score, infectious disease markers, blood routine, urine routine, coagulation function, liver function, kidney function, electrolytes, fasting blood glucose, blood lipids, 12-lead electrocardiogram were performed. The tumor was diagnosed as stage IV nasopharyngeal carcinoma, the lesion was located in the left posterior nasopharynx, and the baseline diameter was 23.1 mm. Two surgical regimens, two radiotherapy regimens, nine different chemotherapy regimens and immunotherapy regimens before medication were all drug-resistant for subject 5 before medication administration; from Aug. 28, 2019, tablets containing compound I were single administered with a dose of 0.4 mg once a day. The dose of 0.4 mg contained four tablets of compound I with a specification of 0.1 mg. After the subject's safety was confirmed, one week later, from Sep. 3, 2019, the tablets containing compound I were single administered continuously with a dose of 0.4 mg once a day, and the dose of 0.4 mg contained four tablets of compound I with a specification of 0.1 mg. […]

For `COCCOc1cnc2ccc(-c3cnc(OC)c(NS(=O)(=O)c4sc(C)nc4C)c3)cn2c1=O` [Compound I], which IC50 ([1]; 72 hours) is on record?
The IC50 was 574 nM.

What about the IC50 ([1]; Homo sapiens, HepG2, 72 h) of the same compound?
The IC50 was under 1000 nM.

What about the progression-free survival (stage IV gastric cancer) of the same compound?
The progression-free survival was 5 months.

What about the serious side effects (stage IV gastric cancer) of the same compound?
Its serious side effects is “one time of hyperglycemia above grade 3”.

And the “target lesion tumor change” value (stage IV gastric cancer; second month visit (C2D28))?
The value was −9%.

And the IC50 ([2]; listed as compound I)?
Its IC50 is under 1000 nM.

What about the IC50 [2] of the same compound?
The IC50 was 73 nM.

What about the “progression-free survival (PFS)” value [3] of the same compound?
Its value is 10 months.

And the serious side effects [3]?
The serious side effects was “no serious side effects”.
